Measured values: ChEMBL document CHEMBL1201862, “PubChem BioAssay data set” (2004)
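Assay format: 96-well plates, 48-hour exposure. GI50 is the concentration that inhibits growth by half.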 Calls of active or inactive are those of the source. Rule as the data show it: active = GI50 up to about 1.1 µM and inactive = higher.

What was measured:
Test in all cases: inhibition of tumour cell growth, NCI panel, 48 h
SF-268 = system: SF-268
HOP-92 = system: HOP-92
NCI/ADR-RES = system: NCI/ADR-RES
SK-MEL-5 = system: SK-MEL-5
TK-10 = system: TK-10
SK-OV-3 = system: SK-OV-3
HT-29 = system: HT-29
KM12 = system: KM12
HCT-116 = system: HCT-116
HCT-15 = system: HCT-15
Malme-3M = system: Malme-3M
OVCAR-3 = system: OVCAR-3
NCI-H23 = system: NCI-H23
UACC-257 = system: UACC-257
HOP-62 = system: HOP-62
NCI-H522 = system: NCI-H522
A549 = system: A549
OVCAR-5 = system: OVCAR-5
SN12C = system: SN12C
NCI-H226 = system: NCI-H226

Structure (SMILES) | GI50 (SF-268) | GI50 (HOP-92) | GI50 (NCI/ADR-RES) | GI50 (SK-MEL-5) | GI50 (TK-10) | GI50 (SK-OV-3) | GI50 (HT-29) | GI50 (KM12) | GI50 (HCT-116) | GI50 (HCT-15) [µM] | GI50 (Malme-3M) | GI50 (OVCAR-3) | GI50 (NCI-H23) | GI50 (UACC-257) | GI50 (HOP-62) | GI50 (NCI-H522) | GI50 (A549) | GI50 (OVCAR-5) | GI50 (SN12C) | GI50 (NCI-H226)
CC1(C)C=Cc2c(cc(O)c3c(=O)c4cc(Cl)ccc4[nH]c23)O1 | 3.86 µM (inactive) | 2.52 µM (inactive) | 1.68 µM (inactive) | 1.92 µM (inactive) | 4.5 µM (inactive) | 2.72 µM (inactive) | 2.4 µM (inactive) | 2.2 µM (inactive) | 2.99 µM (inactive) | 3.27 | 2.24 µM (inactive) | 0.469 µM (active) | 2.3 µM (inactive) | 2.87 µM (inactive) | 4.08 µM (inactive) | 3.29 µM (inactive) | 3.1 µM (inactive) | 1.91 µM (inactive) | 3.24 µM (inactive) | –
Oc1ccc(/N=N/c2ccc(Cl)cc2)cc1 | 17.7 µM (inactive) | 12.7 µM (inactive) | 18.1 µM (inactive) | 11.7 µM (inactive) | 18.1 µM (inactive) | 21.9 µM (inactive) | 18.3 µM (inactive) | 13 µM (inactive) | 15.9 µM (inactive) | 14.7 | – | 21.7 µM (inactive) | 16.4 µM (inactive) | 15.8 µM (inactive) | 18.4 µM (inactive) | 11.6 µM (inactive) | 14.2 µM (inactive) | 17.4 µM (inactive) | 17.1 µM (inactive) | 17.7 µM (inactive)
CCOP(=O)(OCC)/C(F)=C/c1ccc(F)cc1 | > 100 µM (inactive) | > 100 µM (inactive) | > 100 µM (inactive) | > 100 µM (inactive) | > 100 µM (inactive) | > 100 µM (inactive) | > 100 µM (inactive) | > 100 µM (inactive) | > 100 µM (inactive) | > 100 | > 100 µM (inactive) | > 100 µM (inactive) | > 100 µM (inactive) | > 100 µM (inactive) | > 100 µM (inactive) | > 100 µM (inactive) | > 100 µM (inactive) | > 100 µM (inactive) | > 100 µM (inactive) | –
CCN(CC)CCCNc1ccc([N+](=O)[O-])c2nc3ccccc3c(N)c12 | 1.23 µM (inactive) | 1.43 µM (inactive) | 0.668 µM (active) | 0.241 µM (active) | 2.12 µM (inactive) | 1.51 µM (inactive) | 0.437 µM (active) | 0.392 µM (active) | 0.544 µM (active) | 0.883 | 2.48 µM (inactive) | 1.55 µM (inactive) | 0.828 µM (active) | 4.88 µM (inactive) | 5.56 µM (inactive) | – | 0.537 µM (active) | 0.802 µM (active) | 0.74 µM (active) | 2.67 µM (inactive)
C=CCN1CCN([C@H](c2ccc(C(=O)N(CC)CC)cc2)c2cccc(OC)c2)CC1 | > 25 µM (inactive) | 16.8 µM (inactive) | > 25 µM (inactive) | > 25 µM (inactive) | – | > 25 µM (inactive) | > 25 µM (inactive) | > 25 µM (inactive) | > 25 µM (inactive) | > 25 | > 25 µM (inactive) | > 25 µM (inactive) | > 25 µM (inactive) | – | > 25 µM (inactive) | > 25 µM (inactive) | > 25 µM (inactive) | > 25 µM (inactive) | > 25 µM (inactive) | > 25 µM (inactive)
Cc1ccc(O)c(C(c2cc(C)ccc2O)c2cc([N+](=O)[O-])ccc2O)c1 | 7.62 µM (inactive) | 14.8 µM (inactive) | 21.1 µM (inactive) | 38.6 µM (inactive) | 17.4 µM (inactive) | 17.7 µM (inactive) | 15 µM (inactive) | 7.74 µM (inactive) | 24.6 µM (inactive) | 16.3 | – | 12.4 µM (inactive) | 12.4 µM (inactive) | 16.6 µM (inactive) | 13.4 µM (inactive) | 13.2 µM (inactive) | 12.1 µM (inactive) | 14.3 µM (inactive) | 14.7 µM (inactive) | 14.4 µM (inactive)
CC(=O)O[C@H]1[C@@H](OC2CCCC2(c2ccccc2)c2ccccc2)O[N+]([O-])=C[C@@]12COCc1cc3c(cc12)OCO3 (some centres undefined) | 2.87 µM (inactive) | 5.13 µM (inactive) | 3.52 µM (inactive) | 4.6 µM (inactive) | 7.85 µM (inactive) | 30.1 µM (inactive) | 2.77 µM (inactive) | 4.14 µM (inactive) | > 21.2 µM (inactive) | 6.37 | – | 1.89 µM (inactive) | 13.2 µM (inactive) | 18.2 µM (inactive) | 2.99 µM (inactive) | 1.98 µM (inactive) | 8.57 µM (inactive) | 18.7 µM (inactive) | 3.78 µM (inactive) | 4.79 µM (inactive)
CCN1CCC(O)(c2ccc(Oc3ccc(F)cc3)cc2)C(C(=O)c2ccc(Oc3ccc(F)cc3)cc2)C1 (centres undefined) | 16.9 µM (inactive) | 11.9 µM (inactive) | 10.3 µM (inactive) | – | 11 µM (inactive) | 17.8 µM (inactive) | 10.6 µM (inactive) | 4.42 µM (inactive) | 13.6 µM (inactive) | 11.5 | 15.4 µM (inactive) | 15.2 µM (inactive) | 14.8 µM (inactive) | 15.8 µM (inactive) | 15.8 µM (inactive) | – | 15 µM (inactive) | 15 µM (inactive) | 14.2 µM (inactive) | 13.6 µM (inactive)
Fc1ccc2c3c([nH]c2c1)CCNC3 | > 100 µM (inactive) | 29.5 µM (inactive) | > 100 µM (inactive) | > 100 µM (inactive) | > 100 µM (inactive) | > 100 µM (inactive) | > 100 µM (inactive) | > 100 µM (inactive) | > 100 µM (inactive) | > 100 | > 100 µM (inactive) | – | > 100 µM (inactive) | > 100 µM (inactive) | > 100 µM (inactive) | – | > 100 µM (inactive) | > 100 µM (inactive) | > 100 µM (inactive) | 59.6 µM (inactive)
Cc1cccc2nc3cccc(C(=O)NCCC[N+](C)(CCCNC(=O)c4cccc5nc6cccc(C)c6nc45)Cc4ccc([N+](=O)[O-])n4C)c3nc12 | – | > 100 µM (inactive) | > 32.3 µM (inactive) | 2.89 µM (inactive) | > 100 µM (inactive) | 41.5 µM (inactive) | 0.396 µM (active) | 2.26 µM (inactive) | 0.0615 µM (active) | 2.4 | 35.9 µM (inactive) | 3.98 µM (inactive) | > 67.1 µM (inactive) | > 31.6 µM (inactive) | 0.809 µM (active) | 4.13 µM (inactive) | 0.348 µM (active) | 6.68 µM (inactive) | 0.839 µM (active) | –
CC1C(c2ccccc2)OP(=O)(OC(C#N)c2ccccc2)N1C (centres undefined) | > 100 µM (inactive) | 89.9 µM (inactive) | > 100 µM (inactive) | > 100 µM (inactive) | > 100 µM (inactive) | > 100 µM (inactive) | > 100 µM (inactive) | > 100 µM (inactive) | > 100 µM (inactive) | > 100 | 89.3 µM (inactive) | > 100 µM (inactive) | > 100 µM (inactive) | 68.9 µM (inactive) | > 100 µM (inactive) | > 100 µM (inactive) | > 100 µM (inactive) | > 100 µM (inactive) | > 100 µM (inactive) | –
COC(=O)c1sc2nc(Nc3ccccc3)/c(=N\c3ccccc3)sc2c1C | 57.3 µM (inactive) | 31.3 µM (inactive) | 80.5 µM (inactive) | 88.5 µM (inactive) | 30.5 µM (inactive) | 32.8 µM (inactive) | > 100 µM (inactive) | > 100 µM (inactive) | 51.8 µM (inactive) | > 100 | > 100 µM (inactive) | – | 94.4 µM (inactive) | > 100 µM (inactive) | 49.8 µM (inactive) | 30.3 µM (inactive) | 65.8 µM (inactive) | > 100 µM (inactive) | 92.9 µM (inactive) | > 100 µM (inactive)
CC(=O)OCC(OC(C)=O)C(OC(C)=O)C(OC(C)=O)C(/C=N\Nc1nc2ccccc2c(=O)[nH]1)=N/Nc1nc2ccccc2c(=O)[nH]1 (centres undefined) | > 100 µM (inactive) | > 100 µM (inactive) | > 100 µM (inactive) | > 100 µM (inactive) | – | > 100 µM (inactive) | > 100 µM (inactive) | 97.7 µM (inactive) | > 100 µM (inactive) | > 100 | > 100 µM (inactive) | > 100 µM (inactive) | > 100 µM (inactive) | > 100 µM (inactive) | > 100 µM (inactive) | > 100 µM (inactive) | > 100 µM (inactive) | > 100 µM (inactive) | > 100 µM (inactive) | > 100 µM (inactive)
N=C(N)NCCCC(NC(=O)OCCCCn1ccc(N)nc1=O)C(=O)O (centres undefined) | > 100 µM (inactive) | > 100 µM (inactive) | > 100 µM (inactive) | – | > 100 µM (inactive) | > 100 µM (inactive) | > 100 µM (inactive) | > 100 µM (inactive) | > 100 µM (inactive) | > 100 | – | > 100 µM (inactive) | > 100 µM (inactive) | > 100 µM (inactive) | > 100 µM (inactive) | – | > 100 µM (inactive) | > 100 µM (inactive) | > 100 µM (inactive) | 4.26 µM (inactive)
CCOC(=O)C(CC#Cc1ccc(C#CCC(NC(C)=O)C(=O)OCC)cc1)NC(C)=O (centres undefined) | > 100 µM (inactive) | – | > 100 µM (inactive) | > 100 µM (inactive) | > 100 µM (inactive) | > 100 µM (inactive) | > 100 µM (inactive) | > 100 µM (inactive) | > 100 µM (inactive) | > 100 | > 100 µM (inactive) | > 100 µM (inactive) | > 100 µM (inactive) | > 100 µM (inactive) | > 100 µM (inactive) | > 100 µM (inactive) | > 100 µM (inactive) | > 100 µM (inactive) | > 100 µM (inactive) | > 100 µM (inactive)
